Measured values: US20120214818A1, “METHODS OF TREATING DIASTOLIC DYSFUNCTION AND RELATED CONDITIONS” (THE BOARD OF TRUSTEES OF THE UNIVERSITY OF ILLINOIS, priority 2009, published 2012)
Several values for one entry are separate records, joined by “and”; a condition that tells them apart may be missing. Equal entries are not always repeated.

Tested on: myofilaments of skinned left ventricular papillary fiber bundles
Experiment: Ca2+-sensitivity of tension in skinned fiber bundles (first series, pCa-tension)
Assay type: biochemical, mouse
Conditions: for myofilament Ca2+ sensitivity: DOCA-salt fibers/myocytes treated with ranolazine
Procedure: Ca^2+-sensitivity of tension in skinned fibers: Myofilament response to Ca^2+ was measured as essentially described in Reference 24. Left ventricular papillary muscles were dissected from mouse hearts and placed in 4° C. high relaxing solution (HR), which contained 10.00 mM EGTA, 41.89 mM K-Prop, 6.57 mM MgCl2, 100.00 mM 2-[bis(2-hydroxyethyl)amino]ethanesulfonic acid (BES), 6.22 mM Na-ATP, 10.00 mM CrP, 5.00 mM Na-azide, 2.5 μg/mL Pepstatin, 1 μg/mL Leupeptin, and 50 μM PMSF, pH 7.0. The muscles were then dissected further under the microscope into uniform thin bundles of about 3-5 mm in length and 150-250 μm in diameter. The fiber bundles were placed then into a skinning solution of HR that contained 1% triton for 1-2 h at 4° C. The skinned fiber bundles were mounted with cellulose acetate glue in a force measuring apparatus and sarcomere length was adjusted to 2.2 μm using a laser diffraction pattern and width and thickness were determined for calculation of cross-sectional area. The fiber bundles were incubated in ranolazine or vehicle for 15 minutes, and then were activated at 22° C. over a series of pCa (−log of the M Ca^2+ concentration) values between pCa 8.00 and pCa 4.5. Activating solutions were prepared by mixing HR with a pCa 4.50 solution of 10.00 mM EGTA, 9.99 mM CaCl2, 22.16 mM K-Prop (K-Prop stock had 1.00 M propionic acid and 1.00 M KOH), 6.20 mM MgCl2, 100.00 mM BES, 6.29 mM Na-ATP, 10.00 mM creatine phosphate (CrP), 5.00 mM Na-azide, 2.5 μg/mL pepstatin, 1 μg/mL leupeptin, and 50 μM PMSF, pH 7.0. HR and pCa 8.00-pCa 4.50 solutions had one unit of creatine phosphokinase per 200 μL of solution. Tension generated was computed from the force/cross-sectional area and data were analyzed in the Graphpad Prism software and fit into a sigmoidal modified Hill equation in order to generate tension-pCa curves, Hill coefficients, and pCa50 (pCa value at half-maximum tension).
We measured myofilament response to Ca^2+ under two experimental conditions as described in detail below. In a first series of experiments the skinned fiber bundles were mounted in a force measuring apparatus and sarcomere length (SL) was adjusted to 2.2 μm using a laser diffraction pattern and width and thickness were determined for calculation of cross-sectional area. Force was measured over a range of pCa values Skinned fiber bundles were treated with 10 μmol/L ranolazine for 15 min prior to evaluation. In a second series of experiments under different experimental conditions, we determined steady-state Mg-ATPase activity, while simultaneously measuring isometric tension in skinned fiber bundles as a function of pCa. In all experiments, skinned fibers were treated with ranolazine or DMSO vehicle for 15 min prior to beginning either tension or tension/ATPase rate measurements. Tension generated was computed from the force/cross-sectional area and data were analyzed in the GraphPad Prism software and fit with a sigmoidal modified Hill equation in order to generate tension-pCa curves, Hill coefficients, and pCa50 (pCa value at half-maximum tension). We also determined cross-bridge kinetics employing a quick release/restretch protocol. The rate constant for force redevelopment, Ktr, provides a measure of the rate of cross-bridge entry into the force generating state. In all experiments, only fiber bundles retaining more than 80% of their initial maximum tension were included in the analysis. […]

With `COc1ccccc1OCC(O)CN1CCN(CC(=O)Nc2c(C)cccc2C)CC1` (centres unmarked) [ranolazine] the Maximum Tension (DOCA-salt fibers treated with ranolazine (FIG. 11)) was 36.03±1.50 mN/mm^2, the “myofilament Ca2+ sensitivity” value was “returned the DOCA-salt myofilament sensitivity to levels similar to sham fibers” and the “myofilament Ca2+ sensitivity” value (listed as Ranolazine) was “returned DOCA-salt myofilament sensitivity to levels similar to sham myocytes”. The Hill n (fibers from DOCA mice treated with 10 μmol/L ranolazine 15 min, listed as ranalozine) was 3.71+/−1.0 and 3.71±1.0 and the “pCa50 (pCa-tension relations normalized to maximum tension)” value (fibers from DOCA mice treated with 10 μmol/L ranolazine 15 min, sarcomere length 2.2 μm, 22° C., listed as ranalozine) was 6.0+/−0.03 and 6.0±0.03.
